This assay deals with HeLa cells. As to the kind of experiment: Flow cytometric analysis for cell cycle distribution. The class given is cell-based, human. The conditions noted are these: 24 h, control around 25%. As for the experimental part:
For cell cycle analysis, HeLa cells were harvested following compound treatment for 24 h and stained with propidium iodide (PI) according to the instruction of Cycle Test Plus DNA Reagent kit from BD Biosciences (San Jose, CA). Flow cytometric analysis was performed using a FACSCalibur instrument (Becton Dickinson, San Jose, CA).
Figure 2 STK295900 induces G2 phase arrest in HeLa cells. (A) Flow cytometric analysis for cell cycle distribution. HeLa cells were treated with the indicated concentrations of STK295900 for 24 h. Treated cells were then stained with propidium iodide (PI) and processed for cell cycle analysis. The bar graph represents the mean percentage of each cell cycle phase ± SD from three independent experiments. * = p<0.05 versus the respective G1, S, or G2/M phase of DMSO-treated cells. (B) Mitotic index of STK295900. HeLa cells were treated with the indicated concentrations of STK295900 for 24 h. Cells were then stained with Hoechst 33342 and mitotic cells were counted. […] (C) Cell cycle related proteins expression. […] Treated cells were lysed and subjected to immunoblot analyses with antibodies against cyclin A, cyclin B1, phospho-Histone H3 (S10), and Histone H3. β-actin was used as a loading control.

The values below come from publication PMC3551932, “STK295900, a Dual Inhibitor of Topoisomerase 1 and 2, Induces G2 Arrest in the Absence of DNA Damage” (PLoS ONE, 2013).

SMILES strings stand for the structures.

On to `Nc1ccc(-c2nc3ccc(-c4ccc5nc(-c6ccc(N)cc6)[nH]c5c4)cc3[nH]2)cc1` [STK295900, 4,4′-(3H,3′H-5,5′-bibenzimidazole-2,2′-diyl)dianiline], for which the G2/M population result runs as follows: (0.5 µM) “about 35%”; (1 µM) around 55%; (5 µM) around 65%.
